Reference: BindingDB's records for doi:10.1021/acs.jmedchem.8b00642 (Korea Institute of Science and Technology, 2018)

Molecular target: 5-hydroxytryptamine receptor 7 (Homo sapiens, UniProt P34969)
Assay: Displacement of [3H]LSD from human 5-HT7 receptor expressed in HEK cell membranes after 1.5 hrs by microbeta scintillation counting method

Sequence of 5-hydroxytryptamine receptor 7 (P34969 whole entry): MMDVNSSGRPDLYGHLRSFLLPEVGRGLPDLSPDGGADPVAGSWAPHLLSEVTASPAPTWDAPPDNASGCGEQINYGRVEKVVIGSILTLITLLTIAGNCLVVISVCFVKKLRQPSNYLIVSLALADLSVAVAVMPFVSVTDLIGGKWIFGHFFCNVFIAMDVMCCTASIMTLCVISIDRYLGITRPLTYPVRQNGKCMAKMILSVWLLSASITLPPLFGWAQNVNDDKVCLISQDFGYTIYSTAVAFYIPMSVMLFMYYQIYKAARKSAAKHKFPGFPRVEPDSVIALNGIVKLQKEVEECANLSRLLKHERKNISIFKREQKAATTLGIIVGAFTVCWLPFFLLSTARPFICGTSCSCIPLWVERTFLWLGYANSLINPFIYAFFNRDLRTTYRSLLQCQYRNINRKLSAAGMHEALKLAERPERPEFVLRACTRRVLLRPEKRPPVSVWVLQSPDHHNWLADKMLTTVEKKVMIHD

- Ki: 32 nM
Compound: Clc1ccc(-c2n[nH]c3c2CCNCC3)cc1
